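Grown in 96-well plates, cells were treated for 48 hours with each compound at five concentrations. Insufficient inhibition: endpoint recorded as highest concentration tested. GI50 = concentration required for 50% inhibition of growth.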 The source made the active and inactive calls. Rule as the data show it: active = GI50 up to about 1.1 µM and inactive = higher.
What was measured:
Test in all cases: DTP human tumour cell line panel, 48 h
TK-10 = system: TK-10
NCI-H23 = system: NCI-H23
LOX IMVI = system: LOX IMVI
SW-620 = system: SW-620
MCF7 = system: MCF7
T47D = system: T47D
MOLT-4 = system: MOLT-4
ACHN = system: ACHN
M14 = system: M14
SNB-75 = system: SNB-75
DU-145 = system: DU-145
U-251 = system: U-251
MDA-MB-231 = system: MDA-MB-231
K562 = system: K562
HOP-62 = system: HOP-62
UACC-257 = system: UACC-257
SK-OV-3 = system: SK-OV-3
HOP-92 = system: HOP-92
OVCAR-8 = system: OVCAR-8
NCI-H460 = system: NCI-H460

Measured: GI50

CC(C)(C)c1cc(Br)c(O)c(CN(Cc2cc(C(C)(C)C)cc(Br)c2O)C2CCCCC2)c1
inactive: TK-10 15.8 µM | NCI-H23 13.5 µM | LOX IMVI 16.3 µM | SW-620 13.1 µM | MCF7 13.9 µM | T47D 9.68 µM | MOLT-4 10.4 µM | ACHN 14.9 µM | M14 12.9 µM | SNB-75 8.55 µM | DU-145 13.9 µM | U-251 13.9 µM | MDA-MB-231 15 µM | K562 13.3 µM | HOP-62 15.2 µM | UACC-257 4.14 µM | SK-OV-3 15.8 µM | HOP-92 15.5 µM | OVCAR-8 15.1 µM

CCOC(=O)C(C)c1nc2cc3cccnc3c(Cl)c2[nH]c1=O (stereo unspecified)
inactive: TK-10 > 100 µM | NCI-H23 > 100 µM | LOX IMVI > 100 µM | SW-620 > 100 µM | MCF7 > 100 µM | T47D 23.4 µM | ACHN 94.6 µM | M14 > 100 µM | SNB-75 > 100 µM | NCI-H460 32.4 µM | DU-145 20 µM | U-251 > 100 µM | MDA-MB-231 82 µM | K562 > 100 µM | HOP-62 > 100 µM | UACC-257 > 100 µM | SK-OV-3 > 100 µM | HOP-92 > 100 µM | OVCAR-8 > 100 µM

NC(Cc1ccccc1)C(=O)NC(Cc1ccccc1)NC(=O)C(Cc1c[nH]c2ccccc12)C(=O)O (stereo unspecified)
inactive: TK-10 > 100 µM | NCI-H23 > 100 µM | LOX IMVI > 100 µM | SW-620 > 100 µM | MCF7 > 100 µM | T47D > 100 µM | ACHN > 100 µM | M14 > 100 µM | SNB-75 > 100 µM | NCI-H460 > 100 µM | DU-145 > 100 µM | U-251 > 100 µM | MDA-MB-231 > 100 µM | HOP-62 > 100 µM | UACC-257 > 100 µM | SK-OV-3 > 100 µM | HOP-92 34.8 µM | OVCAR-8 > 100 µM

Clc1ncnc(Cl)c1Cl
inactive: TK-10 > 100 µM | NCI-H23 > 100 µM | LOX IMVI > 100 µM | SW-620 > 100 µM | MCF7 > 100 µM | T47D > 100 µM | MOLT-4 > 100 µM | ACHN > 100 µM | M14 > 100 µM | SNB-75 > 100 µM | NCI-H460 > 100 µM | DU-145 > 100 µM | U-251 > 100 µM | MDA-MB-231 > 100 µM | K562 > 100 µM | HOP-62 > 100 µM | SK-OV-3 > 100 µM | HOP-92 > 100 µM | OVCAR-8 > 100 µM

O=C1Nc2ccccc2/C1=N/Nc1nc(-c2ccc([N+](=O)[O-])cc2)cs1
inactive: TK-10 17.5 µM | NCI-H23 27.7 µM | LOX IMVI 35.6 µM | SW-620 32.7 µM | MCF7 35.3 µM | T47D 29.1 µM | MOLT-4 51.9 µM | ACHN 13.3 µM | M14 15 µM | SNB-75 7.45 µM | NCI-H460 11 µM | DU-145 26.5 µM | U-251 57 µM | MDA-MB-231 40.9 µM | HOP-62 > 100 µM | UACC-257 32.1 µM | SK-OV-3 63.1 µM | HOP-92 17.4 µM | OVCAR-8 16.8 µM

CC(=O)N1C(Nc2nccs2)CCN1c1ccccc1 (stereo unspecified)
inactive: TK-10 > 10 µM | NCI-H23 > 10 µM | LOX IMVI > 10 µM | SW-620 > 10 µM | MCF7 > 10 µM | T47D > 10 µM | MOLT-4 > 10 µM | ACHN > 10 µM | M14 > 10 µM | SNB-75 > 10 µM | NCI-H460 > 10 µM | DU-145 > 10 µM | MDA-MB-231 > 10 µM | K562 > 10 µM | HOP-62 > 10 µM | UACC-257 > 10 µM | HOP-92 > 10 µM | OVCAR-8 > 10 µM

N#CC(C#N)=C/C=C/c1ccccc1[N+](=O)[O-]
inactive: TK-10 > 10 µM | NCI-H23 4.45 µM | LOX IMVI 2.52 µM | SW-620 4.08 µM | MCF7 3.95 µM | T47D > 10 µM | MOLT-4 4.54 µM | ACHN 4.26 µM | SNB-75 > 10 µM | NCI-H460 9.57 µM | DU-145 > 10 µM | U-251 > 10 µM | MDA-MB-231 2.59 µM | K562 3.21 µM | HOP-62 > 10 µM | UACC-257 2.68 µM | SK-OV-3 > 10 µM | HOP-92 5.08 µM | OVCAR-8 1.96 µM

Reference: ChEMBL document CHEMBL1201862, “PubChem BioAssay data set” (2004)
